Test results taken from BindingDB's records for doi:10.1021/jm021113r (University of Camerino, 2003).

Molecular target: Nischarin / imidazoline I1 receptor (Rattus norvegicus)
Assay: Displacement of [125I]p-iodoclonidine from imidazoline receptor I-1 in rat pheochromocytoma cells

With `CC(CC1=NCCN1)c1ccccc1` (stereo not given) as the compound, how does the Ki read?
The Ki was 6.03 µM.

`C[C@H](CC1=NCCN1)c1ccccc1` was tested. Which Ki did it give?
The Ki was 0.589 µM.

`CC(Oc1ccccc1)C1=NCCN1` (stereo not given) was tested. Which Ki did it give?
Its Ki is 0.309 µM.

`C[C@@H](CC1=NCCN1)c1ccccc1` was tested. Which Ki did it give?
Its Ki is 7.24 µM.

Which Ki does the source give for `c1ccc(CCC2=NCCN2)cc1` [2-Phenethyl-4,5-dihydro-1H-imidazole] here?
The Ki was 3.71 µM.
